# Measurements published in US9718809B2, “Bisarylsulfonamides useful in the treatment of inflammation and cancer” (Kancera AB, priority 2011, dated 2017).
# Where a name gives a salt, the structure may show the parent alone.
# Tested on: F-2,6-P2 in PANC-1 cells
# Experiment: Quantification of F-2,6-P2 (Van Schaftingen coupled enzyme assay) in PANC-1 cells
# Type: cell-based, human
# Details: Homo sapiens; PANC-1 cells; read-out: IC50 based on quantification of F-2,6-P2
# From the text: A method for quantification of F-2,6-P2 has been described by Van Schaftingen et al. (1982) Eur. J. Biochem. 129, 191-5. This sensitive assay is based on the potent activation of pyrophosphate dependent phosphofructokinase-1 (PPi-PFK) from potato tubers by F-2,6-P2. The use of a series of coupled enzymes leads to a consumption of NADH (nicotinamide adenine dinucleotide) that can be followed spectrophotometrically (an updated protocol is available in Van Schaftingen, (1984) Methods of Enzymatic Analysis (Bergmeyer, H. U., ed.), 3rd edn., vol. 6, pp. 335-341, Verlag Chemie, Weinheim). A protocol for measurements in 96-well microtiter plate format is also available (Bruni et al., (1989) Anal. Biochem. 178, 324-6).
# The levels of F-2,6-P2 have been determined using the van Shaftingen assay as described in the protocol below, in six different cancer cell lines endogenously expressing varying levels of the different isoforms of PFK-2/BPase-2 (MCF-7, PANC-1, NUGC-3, SW480, SW620 and MIA PaCa-2). All reagents were purchased from commercial sources or prepared in-house.
# Cell line B (PANC-1, human pancreatic carcinoma cell line): PANC-1 cells (ATCC-CRL-1469), lot. no. 58564651. Cells were seeded at a concentration of ˜250 000 cells/mL in 100 μL growth medium (˜25 000 cells/well).
# Growth medium (cell lines B-F): Dulbecco's Modified Eagle's Medium, DMEM, VWR, LONZ12-604F; 10% FBS, Invitrogen, 10270-106.
# Starvation medium (cell lines A-F): DMEM/F12 without phenol red and glucose free, SVA, 991373; 0.25% FBS, Invitrogen, 10270-106.
# Induction medium (cell lines A-F): DMEM/F12 without phenol red and glucose free, SVA, 991373; 0.25% FBS, Invitrogen, 10270-106 (same as starvation medium).
# Cells were seeded in 96-well Corning Costar tissue culture plates (CLS3595, Sigma-Aldrich) using the concentrations specified above for the different cell lines A-F and incubated over night at 37° C. and 5% CO2. Row A in the plate was left empty and the cell lines added to rows B-H. Next day the growth medium was discarded and replaced with 100 μL starvation medium. The plates were incubated for 18 h at 37° C. and 5% CO2. After 18 h of starvation the cells were induced with 100 μL compound or control solutions. Compounds were either tested in two concentrations (50 μM and 10 μM) or in dose response curves starting from 50 μM. The final DMSO concentration in assay plates was 0.5%. Also a dose response curve of a reference inhibitor was included in row H on each plate. All compounds were tested in duplicate plates. Compounds (in 96 well CLS 3365, Sigma-Aldrich plates) were serial diluted in DMSO from 10 mM compound DMSO stock solutions with Janus (automated liquid handling workstation from PerkinElmer). Five μL were transferred to a Greiner deep well plate (736-0155, VWR) with 495 μL starvation medium. The final start concentration of compounds in the dilution plate was 100 μM, 1% DMSO. For compounds tested as single points, 10 mM compound solutions were diluted five fold in DMSO to 2 mM, followed by the transfer of 5 μL to separate dilution plates with 495 μL starvation medium. The final concentrations of compounds in these dilution plates were 100 or 20 μM, respectively, and final concentration of DMSO was 1%. The plates were incubated at 37° C. and 5% CO2 for 1 h, followed by the addition of 10 μL 20 mM D-glucose in starvation medium. Controls, with and without 1 mM glucose, were included in row B. The final assay volume was 210 μL per well. After 2 h of incubation at 37° C. and 5% CO2, the supernatants were discarded and the cells lysed by the addition of 25 μL 250 mM NaOH. The plates were incubated at 37° C. and 5% CO2 for 5 min followed by an addition of 75 μL MilliQ dH2O. The supernatants were further diluted with 210 μL MilliQ dH2O to a final concentration of 20 mM NaOH. 200 μL were transferred to NUNC 96-well plates (7322661, VWR) and the plates were sealed and stored at −20° C. until analysis. […]
row,SMILES,IC50 [µM]
1,"O=C(OCCCN1CCOCC1)c1ccc(NS(=O)(=O)c2cc(-c3cc(F)ccc3O)c(Cl)s2)cc1O [Example 213, 3-Morpholin-4-ylpropyl 4-({[5-chloro-4-(5-fluoro-2-hydroxyphenyl)-2-thienyl]sulfonyl}amino)-2-hydroxybenzoate trifluoroacetate]",0.6
2,"COC(=O)c1ccc(NS(=O)(=O)c2cc3ccccc3o2)cc1O [Example 9, Methyl 4-[(1-benzofuran-2-ylsulfonyl)amino]-2-hydroxybenzoate]",19.6
3,"COC(=O)c1ccc(NS(=O)(=O)c2csc3ccccc23)cc1O [Example 52, Methyl 4-[(1-benzothien-3-ylsulfonyl)amino]-2-hydroxybenzoate]",10.8
4,"COC(=O)c1ccc(NS(=O)(=O)c2cccc(N3CCCCC3)c2)cc1O [Example 142, Methyl 2-hydroxy-4-({[3-(piperidin-1-yl)phenyl]sulfonyl}amino)benzoate]",1.5
5,"COC(=O)c1ccc(NS(=O)(=O)c2scc(Br)c2Br)cc1O [Example 57, Methyl 4-{[(3,4-dibromothiophen-2-yl)sulfonyl]amino}-2-hydroxybenzoate]",5.7
6,"COC(=O)c1ccc(NS(=O)(=O)c2cccc(-c3ccc(C(=O)N(C)C)cc3)c2)cc1O [Example 101, Methyl 4-({[4′-(dimethylcarbamoyl)biphenyl-3-yl]sulfonyl}amino)-2-hydroxybenzoate]",8.4
7,"COC(=O)c1ccc(NS(=O)(=O)c2cccc(C(=O)OC(C)C)c2)cc1O [Example 137, Methyl 2-hydroxy-4-[({3-[(1-methylethoxy)carbonyl]phenyl}sulfonyl)amino]benzoate]",11.1
8,"COC(=O)c1ccc(NS(=O)(=O)c2ccc(-c3cc(F)ccc3F)s2)cc1O [Example 118, Methyl 4-({[5-(2,5-difluorophenyl)thiophen-2-yl]sulfonyl}amino)-2-hydroxybenzoate]",2
9,"O=C(OCCCNc1cccnc1)c1ccc(NS(=O)(=O)c2cccc(-c3cc(F)ccc3O)c2)cc1O [Example 230, 3-(Pyridin-3-ylamino)propyl 4-{[(5′-fluoro-2′-hydroxybiphenyl-3-yl)sulfonyl]amino}-2-hydroxybenzoate trifluoroacetate]",1.9
10,"COC(=O)c1ccc(NS(=O)(=O)Cc2ccc(Br)cc2)cc1O [Example 24, Methyl 4-{[(4-bromobenzyl)sulfonyl]amino}-2-hydroxybenzoate]",10.4
11,"COCCOC(=O)c1ccc(NS(=O)(=O)c2c(Cl)sc(Cl)c2Br)cc1O [Example 197, 2-Methoxyethyl 4-{[(4-bromo-2,5-dichlorothiophen-3-yl)sulfonyl]amino}-2-hydroxybenzoate]",3.5

# The remaining lines, values ahead:
row,IC50 [µM],SMILES
1,13.3,"COC(=O)c1ccc(NS(=O)(=O)c2cccc(-c3cccc(C(=O)OC(C)C)c3)c2)cc1O [Example 128, 1-Methylethyl 3′-{[3-hydroxy-4-(methoxycarbonyl)phenyl]sulfamoyl}biphenyl-3-carboxylate]"
2,5.7,"CCOCCOC(=O)c1ccc(NS(=O)(=O)c2cc(Cl)sc2Cl)cc1O [Example 66, 2-Ethoxyethyl 4-{[(2,5-dichloro-3-thienyl)sulfonyl]amino}-2-hydroxybenzoate]"
3,5.4,"COC(=O)c1ccc(NS(=O)(=O)c2cccc(-c3cccc(C(N)=O)c3)c2)cc1O [Example 113, Methyl 4-{[(3′-carbamoylbiphenyl-3-yl)sulfonyl]amino}-2-hydroxybenzoate]"
4,4.8,"COC(=O)c1ccc(NS(=O)(=O)c2ccc(F)c(Cl)c2)cc1O [Example 32, Methyl 4-{[(3-chloro-4-fluorophenyl)sulfonyl]amino}-2-hydroxybenzoate]"
5,2.8,"COC(=O)c1ccc(NS(=O)(=O)c2cc(-c3cccc(N)c3)c(Cl)s2)cc1O [Example 107, Methyl 4-({[4-(3-aminophenyl)-5-chlorothiophen-2-yl]sulfonyl}amino)-2-hydroxybenzoate trifluoroacetate]"
6,2.1,"COC(=O)c1ccc(NS(=O)(=O)c2cccc3c(N(C)C)cccc23)cc1O [Example 40, Methyl 4-({[5-(dimethylamino)naphthalen-1-yl]sulfonyl}amino)-2-hydroxybenzoate trifluoroacetate]"
7,1.7,"COC(=O)c1ccc(NS(=O)(=O)c2cc(Cl)cc(Cl)c2)cc1O [Example 22, Methyl 4-{[(3,5-dichlorophenyl)sulfonyl]amino}-2-hydroxybenzoate]"
8,1.7,"COC(=O)c1ccc(NS(=O)(=O)c2cc(-c3ccc4c(c3)CCO4)cc(C(F)(F)F)c2)cc1O [Example 116, Methyl 4-({[3-(2,3-dihydro-1-benzofuran-5-yl)-5-(trifluoromethyl)phenyl]sulfonyl}amino)-2-hydroxybenzoate]"
9,0.8,"Cc1cc(NCCCOC(=O)c2ccc(NS(=O)(=O)c3cccc(-c4cc(F)ccc4O)c3)cc2O)no1 [Example 232, 3-[(5-Methylisoxazol-3-yl)amino]propyl 4-{[(5′-fluoro-2′-hydroxybiphenyl-3-yl)sulfonyl]amino}-2-hydroxybenzoate trifluoroacetate]"

# Same assay, conditions: at 12.5-50 μM in PANC-1 cells
row,SMILES,"inhibition (F-2,6-P2 levels) [%]"
1,"COC(=O)c1ccc(NS(=O)(=O)c2cccc(-c3ccc(SC)cc3)c2)cc1O [Example 98, Methyl 2-hydroxy-4-({[4′-(methylsulfanyl)biphenyl-3-yl]sulfonyl}amino)benzoate]",≥ 50
2,"CN1CCN(CCCOC(=O)c2ccc(NS(=O)(=O)c3cc(Cl)c(Cl)s3)cc2O)CC1.O=C(O)C(F)(F)F [Example 65, 3-(4-Methylpiperazin-1-yl)propyl 4-{[(4,5-dichlorothiophen-2-yl)sulfonyl]amino}-2-hydroxybenzoate trifluoroacetate]",≥ 50
3,"COC(=O)c1ccc(NS(=O)(=O)c2cncc(-c3cccc(OC)c3F)c2)cc1O [Example 130, Methyl 4-({[5-(2-fluoro-3-methoxyphenyl)pyridin-3-yl]sulfonyl}amino)-2-hydroxybenzoate]",≥ 50
4,"O=C(O)C(F)(F)F.O=C(OCCCn1ccnc1)c1ccc(NS(=O)(=O)c2cc(Cl)c(Cl)s2)cc1O [Example 64, 3-(1H-Imidazol-1-yl)propyl 4-{[(4,5-dichlorothiophen-2-yl)sulfonyl]amino}-2-hydroxybenzoate trifluoroacetate]",≥ 50
5,"COC(=O)c1ccc(NS(=O)(=O)c2cccc(-c3ccc(C(F)(F)F)cc3)c2)cc1O [Example 100, Methyl 2-hydroxy-4-({[4′-(trifluoromethyl)biphenyl-3-yl]sulfonyl}amino)benzoate]",≥ 50
6,"COC(=O)c1ccc(NS(=O)(=O)c2cccc(OC(F)F)c2)cc1O [Example 31, Methyl 4-({[3-(difluoromethoxy)phenyl]sulfonyl}amino)-2-hydroxybenzoate]",≥ 50
7,"COC(=O)c1ccc(NS(=O)(=O)c2cnc(Cl)c(-c3cccc(F)c3)c2)cc1O [Example 83, Methyl 4-({[6-chloro-5-(3-fluorophenyl)pyridin-3-yl]sulfonyl}amino)-2-hydroxybenzoate]",≥ 50
8,"COCc1cccc(OCCOC(=O)c2ccc(NS(=O)(=O)c3cc(Cl)c(Cl)s3)cc2O)c1 [Example 227, 2-[3-(Methoxymethyl)phenoxy]ethyl 4-{[(4,5-dichloro-2-thienyl)sulfonyl]amino}-2-hydroxybenzoate]",≥ 50
